Data set [1] concerns maximal electroshock. The data set can be described thus: Modified maximal electroshock test (100 Hz, 0.1 sec., 150 volt) of hydrolyzable silanes, oral. The conditions noted are these: for ED50: Mus musculus, read-out: Maximal Electroshock ED50 (95% C.I.); for ED50 / Maximal Electroshock ED50 (95% C.I.): sesame oil; for anticonvulsant activity (in words): maximal electroshock. Type of data set: in vivo, male Carworth mice. The procedure:
(§1) The modified (100 Hz, 0.1 sec., 150 volt) maximal electroshock test was used to determine the anticonvulsant activity of several hydrolyzable silanes. Male Carworth mice were used as the test animal. All of the compounds were administered orally in a sesame oil carrier. […] The effective amount (ED50) for the compounds at three different time intervals after dosing was determined as previously described.

A short description of data set [2]: LD50, single dose in sesame oil, 14 days observation. Details: species or system male Carworth mice. The conditions noted are these: mouse, in vivo, po, dead after 14 days. The procedure: as §1
The LD50 of certain silanes was determined by administering a single dose of the silane in sesame oil to groups of the male mice.

The test system of data set [3] is tonic extension of the hind limbs. The data set can be described thus: Electroshock test (60 Hz A.C., 0.2 second, 50 milliamp), i.p. dosing. Type of data set: in vivo, mice (female Swiss Webster). As for the experimental part: The electroshock test procedure was used to determine anticonvulsant activity of diphenylsilanediol. Adult female mice (Swiss Webster strain) were utilized as test animals. […] Seizure protection was scored as inhibition of tonic extension. Groups of mice (six/group) were dosed interperitonially with varying amounts of diphenylsilanediol in a 0.5% methylcellulose solution in distilled water. The dosages ranged from 10 to 100 mg./kg. and the electroshock was applied 30 minutes after dosing.
(§2) (ED99) to be 30 minutes after dosing, the half time of the effect to be about four hours, with some measurable anticonvulsant activity being noted up to 10 hours. The toxicity (LD50) of this silane solution (as freshly prepared) in mice, administered i.p., was determined to be 2500 mg./kg.

For data set [4], the system named is idiopathic epilepsy, grand mal seizures of the clonic type. As to the kind of experiment: Control of seizures in a dog with idiopathic epilepsy. The class given is in vivo, dog (German Shepard). The procedure:
A young adult dog (German Shepard) was diagnosed as having idiopathic epilepsy after having grand mal seizures of the clonic type.
After five days of dosing, the same amount was administered orally in 250 mg. capsules for a period of 10 days.

Data set [5] deals with Pentylenetetrazol-induced clonic seizures. The data set can be described thus: Pentylenetetrazol-induced seizure test (Swinyard's method). The class given is in vivo, mice (female Swiss Webster). The note with it: Mus musculus, ip, 0.5 h; i.p., 30 minutes before pentylenetetrazol; absence of clonic seizures. The procedure: (§3) Diphenylsilanediol was also tested to determine its effectiveness against chemically-induced seizures. Pentylenetetrazol and strychnine were the convulsant compounds used. Pentylenetetrazol testing was performed in accordance with Swinyard's method as described in J. Am. Pharm. Assoc. 38:201, 1949, while styrchnine tests were made by the method of Everett and Richards as described in J. Pharm. Exp. Ther. 81:402, 1944.
(§4) The silane (in 0.5% aqueous methylcellulose) was administered i.p. to groups of 6 mice (female Swiss Webster) at doses of 10, 30, 100 and 300 mg./kg. The silane solution was administered 30 minutes before injection with one of the convulsant drugs. The end point for scoring effectiveness was the absence of clonic seizures during the 30 minute period subsequent to administration of the convulsant -- this same criterion was utilized in conducting the strychnine tests. In both tests, effective amounts (ED50) of the silane were equivalent with the pentylenetetrazol-induced convulsion requiring 58 mg./kg. and the styrchnine tests showing 60 mg./kg. as the ED50.

Data set [6] has as its system strychnine-induced seizures. The data set can be described thus: Strychnine-induced seizure test (method of Everett and Richards). Type of data set: in vivo, mice (female Swiss Webster). The conditions noted are these: Mus musculus, ip, 0.5 h. As for the experimental part:
as §3, §4

Data set [7] has as its system maximal electroshock. As to the kind of experiment: Modified maximal electroshock (100 Hz, 0.1 second, 150 volts), intravenous dosing. Type of data set: in vivo, mice. As for the experimental part: (§5) Mice were also dosed with a similar solution of diphenylsilanediol but by intravenous administration. The ED50 was determined to be 10 mg./kg. with a 5 minute peak time by a modified maximal electroshock technique in which stimulus was delivered at 100 Hz for 0.1 second at 150 volts.
On the technique in general: The maximal electroshock test induces tonic seizures with an electrical stimulus.

Data set [8] in a line: Acute toxicity (LD50), i.p. The note with it: mouse, in vivo, ip, mice, freshly prepared solution. The procedure:
as §2

Data set [9] deals with maximal electroshock. As to the kind of experiment: Modified maximal electroshock, oral dosing via gastric intubation in sesame oil. The class given is in vivo, mice. The conditions noted are these: Mus musculus. The procedure:
as §5
Oral dosing of mice via gastric intubation with the diphenylsilanediol suspended in sesame oil solution was also performed. Maximal electroshock (modified as described above) was again used to determine the amount necessary to provide an effective dose (ED50) at various time intervals after dosing.

Setting [10] is: after cessation of 10 mg./kg. oral dose twice daily.
[11] abbreviates: after discontinuation of 500 mg. regimen.

The term ED50 denotes the dose that gives a 50% effect, or the effect in half of the subjects. What is called LD50 is the dose at which mortality reaches 50%. Read a low LD50 as a more toxic substance.

In the case of `N[Si](N)(c1ccccc1)c1ccccc1` [.phi.2 Si(NH2)2], the figures for the ED50 in [1] (2 hrs. after dosing), in data set [1] (4 hrs. after dosing) and in data set [1] (6 hrs. after dosing) were 56 mg/kg, 68 mg/kg and 100 mg/kg, respectively.
For the compound `O[Si](O[Si](O)(c1ccccc1)c1ccccc1)(c1ccccc1)c1ccccc1` [reference compound], the ED50 in [1] (2 hrs. after dosing), in data set [1] (4 hrs. after dosing) and in data set [1] (6 hrs. after dosing) was 1000 mg/kg in each case. Besides, the “anticonvulsant activity (in words)” value in data set [1] is given as “no anticonvulsant activity”.
Turning to `c1ccc([SiH2]c2ccccc2)cc1` [.phi.2 SiH2], the ED50 in data set [1] (2 hrs. after dosing) was found to be 28 mg/kg; in data set [1] (4 hrs. after dosing), 25 mg/kg; in data set [1] (6 hrs. after dosing) it was 28 mg/kg. Further, in data set [2], the LD50 at 336 h is 924 mg/kg.
With `CCO[Si](OCC)(c1ccccc1)c1ccccc1` [.phi.2 Si(OC2 H5)2], the ED50 came out at 37 mg/kg in data set [1] (2 hrs. after dosing), 50 mg/kg in data set [1] (4 hrs. after dosing) and 22 mg/kg in data set [1] (6 hrs. after dosing). Further, in [2], the 50% lethal dose (LD50) at 336 h came to 1720 mg/kg.
On to `CC(=O)O[Si](OC(C)=O)(c1ccccc1)c1ccccc1`, for which the ED50 came out at 43 mg/kg in [1] (2 hrs. after dosing), 11 mg/kg in [1] (4 hrs. after dosing) and 50 mg/kg in data set [1] (6 hrs. after dosing).
As to `CN[Si](NC)(c1ccccc1)c1ccccc1`, the ED50 was determined as 68 mg/kg in data set [1] (2 hrs. after dosing), 70 mg/kg in data set [1] (4 hrs. after dosing) and 153 mg/kg in data set [1] (6 hrs. after dosing).
Take `CC(C)O[Si](OC(C)C)(c1ccccc1)c1ccccc1` [.phi.2 Si(Oi-C3 H7)2]: the figures for the ED50 in [1] (4 hrs. after dosing) and in data set [1] (6 hrs. after dosing) were 99 mg/kg and 66 mg/kg, respectively. In data set [1] (2 hrs. after dosing), the “Maximal Electroshock ED50 (95% C.I.)” value is “no protection”. The compound also displayed an LD50 at 336 h in data set [2] of 990 mg/kg.
`CCCCO[Si](OCCCC)(c1ccccc1)c1ccccc1` [.phi.2 Si(On-C4 H9)2, diphenyl-di-n-butoxysilane, reference compound]: the ED50 in data set [1] (4 hrs. after dosing) and in data set [1] (6 hrs. after dosing) was 1000 mg/kg throughout. In addition, the “anticonvulsant activity (in words)” value in [1] is “no observed activity”. Further, the “Maximal Electroshock ED50 (95% C.I.)” value in [1] (2 hrs. after dosing) is “no protection”. Further, the 50% lethal dose (LD50) at 336 h in data set [2] was found to be 5300 mg/kg.
`CCN(CC)CCO[Si](OCCN(CC)CC)(c1ccccc1)c1ccccc1` [.phi.2 Si[OCH2 CH2 N(C2 H5)2]2]: the values for the ED50 in [1] (2 hrs. after dosing), in data set [1] (4 hrs. after dosing) and in data set [1] (6 hrs. after dosing) were 52 mg/kg, 84 mg/kg and 168 mg/kg, respectively.
On to `O[Si](O)(c1ccccc1)c1ccccc1` [.phi.2 Si(ONa)2], for which the ED50 in data set [1] (2 hrs. after dosing) stood at 37 mg/kg; in data set [1] (4 hrs. after dosing), 61 mg/kg; in [1] (6 hrs. after dosing), 90 mg/kg.
On to `O[Si](O)(c1ccccc1)c1ccccc1` [diphenylsilanediol], for which the “half time of the effect” value in [3] (25 mg./kg. (ED99)) is recorded as “about four”. Also, the “peak time of the anticonvulsant effect” value in [3] (25 mg./kg. (ED99)) turned out to be 30 min. The “some measurable anticonvulsant activity noted up to” value in data set [3] (25 mg./kg. (ED99)) is given as “up to 10 hours”. This compound also returned an ED99 in data set [3] (Mus musculus, ip, 0.5 h) of 25 mg/kg. Also, the ED50 in data set [3] (Mus musculus, ip, 0.5 h, 0.5% methylcellulose, electroshock 30 minutes after dosing, read-out: effective dose to prevent convulsions in half the animals (ED50)) worked out at 20 mg/kg; in data set [5], 58 mg/kg; in data set [6], 60 mg/kg; in data set [7] (Mus musculus, 5 min), 10 mg/kg; in data set [9] (2 hrs. after dosing) it was 25 mg/kg; in [9] (4 hrs. after dosing), 37 mg/kg. In data set [9] (6 hrs. after dosing), the 50% effect level (ED50) was put at a dose of 60 mg/kg. The control of seizures entry in data set [4] (500 mg. intramuscularly twice per day) is on record as “effective in controlling seizures”. The “seizures during 15 day period” value in [4] (500 mg. twice per day, 5 days intramuscular then 10 days oral (250 mg. capsules)) was “did not experience seizures”. Further, the first seizure postdose in data set [4] (setting [10]) turned out to be 30 h. The “interval of seizures after cessation” value in [4] (setting [10]) is given as “three”. For the same compound, the “first seizure after the last dose” value in data set [4] (setting [11]) was 39 h. In data set [4] (setting [11]), the “interval of seizures after discontinuation” value is reported as “about four”. For the same compound, the elimination of seizures entry in data set [4] (one-half the previous dosage, 10 mg./kg. orally twice daily, 10 days) is on record as “effective in eliminating seizures”. The same compound gave a peak time in [7] of 5 min. In data set [8], this compound came in with an LD50 of 2500 mg/kg.
For `CN(C)[Si](c1ccccc1)(c1ccccc1)N(C)C` [.phi.2 Si[N(CH3)2]2], the ED50 was found to be 50 mg/kg in data set [1] (2 hrs. after dosing), 50 mg/kg in data set [1] (4 hrs. after dosing) and 56 mg/kg in [1] (6 hrs. after dosing).
In the case of `CCCCS[Si](SCCCC)(c1ccccc1)c1ccccc1` [.phi.2 Si(SC4 H9)2], the ED50 amounted to 290 mg/kg in data set [1] (2 hrs. after dosing), 65 mg/kg in [1] (4 hrs. after dosing) and 65 mg/kg in data set [1] (6 hrs. after dosing).
Take `CCCO[Si](OCCC)(c1ccccc1)c1ccccc1` [.phi.2 Si(On-C3 H7)2]: the ED50 in data set [1] (4 hrs. after dosing) came out at 89 mg/kg; in data set [1] (6 hrs. after dosing), 32 mg/kg. Further, the “Maximal Electroshock ED50 (95% C.I.)” value in data set [1] (2 hrs. after dosing) was “no protection”. The compound further displayed an LD50 at 336 h in data set [2] of 1000 mg/kg.
For the compound `CO[Si](OC)(c1ccccc1)c1ccccc1` [.phi.2 Si(OCH3)2], the ED50 in data set [1] (2 hrs. after dosing) came to 39 mg/kg; in data set [1] (4 hrs. after dosing), 26 mg/kg; in data set [1] (6 hrs. after dosing), 52 mg/kg. The LD50 at 336 h in data set [2] was 1060 mg/kg.
In the case of `CCO[SiH](c1ccccc1)c1ccccc1`, the figures for the ED50 in data set [1] (2 hrs. after dosing), in data set [1] (4 hrs. after dosing) and in data set [1] (6 hrs. after dosing) were 22 mg/kg, 21 mg/kg and 46 mg/kg, respectively.

The record behind these values is US4006226A, “Anticonvulsant diphenylsilanes” (priority 1976, dated 1977).
